Assay [1] relates to β-catenin-TCF-mediated reporter transcription activity in Colo 205 cells. Put plainly: Colo 205 reporter assay (TCF/LEF promoter-driven firefly luciferase). In kind it is cell-based. The conditions noted are these: Homo sapiens; Colo 205 TCF/LEF luciferase reporter, 5 hours after compound addition, 384 well; read-out: Colo205 IC50. Background: A reporter such as luciferase makes a cellular process visible.

Assay [2] has as its system XBP1(u)-luciferase splicing reporter in HepG2 hepatoma cells. Put plainly: HepG2 XBP1 reporter assay (XBP1(u)-Luc). The note with it: Homo sapiens, 6 hours after compound addition, Table 3, read-out: XBP1-luc HepG2 1 EC50. The assay is classed as cell-based.

pEC50, pIC50: −log10 of the molar value.

Usually pIC50 stands for the IC50 on a negative log10 scale, so that one unit is a factor of ten. What is called pEC50 is the negative decadic logarithm of the EC50, by convention in mol/L. Consider `Cc1cc(N2CCCOCC2c2cc3c(cc2Cl)SCCN3)nc(N)n1` (racemic) [I-274, 4-[3-(7-chloro-3,4-dihydro-2H-1,4-benzothiazin-6-yl)-1,4-oxazepan-4-yl]-6-methyl-pyrimidin-2-amine], for which, in assay [1], the pIC50 is 6.00 to 6.52. Further, the pEC50 in assay [2] was not above 5.30.
The matching figures for `Cc1cc(N2CCCOC[C@H]2c2ccc(NC(=O)C(C)(C)O)cc2Cl)nc(N)n1` (racemic) [I-277, (+/−)-N-(4-(4-(2-amino-6-methylpyrimidin-4-yl)-1,4-oxazepan-3-yl)-3-chlorophenyl)-2-hydroxy-2-methylpropanamide]: more than 6.52 and more than 6.22.
With `Cc1cc(N2CCCOCC2c2ccc(NC(=O)C3(F)CCOC3)cc2Cl)nc(N)n1` (racemic) [I-279, (+/−)-N-(4-(4-(2-amino-6-methylpyrimidin-4-yl)-1,4-oxazepan-3-yl)-3-chlorophenyl)-3-fluorotetrahydrofuran-3-carboxamide], the pIC50 in assay [1] was more than 6.52. The pEC50 in assay [2] was more than 6.22.
The matching figures for `Cc1cc(N2CCCOCC2c2ccc(NC(=O)[C@@H]3CCOC3)cc2Cl)nc(N)n1` (mixture of isomers) [I-280, (3R)—N-(4-(4-(2-amino-6-methylpyrimidin-4-yl)-1,4-oxazepan-yl)-3-chlorophenyl)-tetrahydrofuran-3-carboxamide]: 6.00 to 6.52 and more than 6.22.
Take `Cc1cc(N2CCCOCC2c2ccc(NC(=O)[C@H]3CCOC3)cc2Cl)nc(N)n1` (mixture of isomers) [I-281, (3S)—N-(4-(4-(2-amino-6-methylpyrimidin-4-yl)-1,4-oxazepan-3-yl)-3-chlorophenyl)-tetrahydrofuran-3-carboxamide]: the pIC50 in assay [1] was 6.00 to 6.52. Besides, the pEC50 in assay [2] is 5.70 to 6.22.
The matching figures for `Cc1cc(N2CCCOCC2c2ccc(NC(=O)C3(C)COC3)cc2Cl)nc(N)n1` (racemic) [I-282, (+/−)-N-(4-(4-(2-amino-6-methylpyrimidin-4-yl)-1,4-oxazepan-3-yl)-3-chlorophenyl)-3-methyloxetane-3-carboxamide]: 6.00 to 6.52 and 5.70 to 6.22.
The matching figures for `Cc1cc(N2CCCCC[C@H]2c2ccccc2Br)nc(N)n1` (single isomer, unassigned) [I-3]: more than 6.52 and more than 6.22.
The matching figures for `COc1ccccc1[C@H]1CCCCCN1c1cc(C)nc(N)n1` (single isomer, unassigned) [I-11]: more than 6.52 and 5.30 to 5.70.
Consider `Cc1cc(N2CCCCC[C@H]2c2ccccc2Cl)nc(N)n1` (single isomer, unassigned) [I-14], for which the pIC50 in assay [1] is more than 6.52. Moreover, in assay [2], the negative logarithm of the EC50 (pEC50) is more than 6.22.
The matching figures for `COc1cc(S(C)(=O)=O)ccc1[C@@H]1CCCCCN1c1cc(C)nc(N)n1` (single isomer, unassigned) [I-98, 4-[2-(2-methoxy-4-methylsulfonyl-phenyl)azepan-1-yl]-6-methyl-pyrimidin-2-amine]: 6.00 to 6.52 and more than 6.22.
The matching figures for `Cc1cc(N2CCCOCC2c2cc(NCCO)ccc2Cl)nc(N)n1` (single isomer, unassigned) [I-237]: more than 6.52 and more than 6.22.
The matching figures for `Cc1cc(N2CCCOC[C@@H]2c2cc(NCCO)ccc2Cl)nc(N)n1` (single isomer, unassigned) [I-253]: more than 6.52 and more than 6.22.
For the compound `Cc1cc(N2CCCOC[C@@H]2c2ccc(OC[C@@H](C)O)cc2Cl)nc(N)n1` (single isomer, unassigned) [I-265], in assay [1], the pIC50 was more than 6.52. Also, the pEC50 in assay [2] was more than 6.22.
On to `CC(=O)Nc1cc([C@H]2COCCCN2c2cc(C)nc(N)n2)c(Cl)cc1F` (single isomer, unassigned) [I-271], for which the pIC50 in assay [1] is 6.00 to 6.52. The pEC50 in assay [2] was more than 6.22.
The matching figures for `Cc1cc(N2CCCCCC2c2ccccc2Br)nc(N)n1` (stereo not drawn) [I-69]: 6.00 to 6.52 and more than 6.22.
The matching figures for `COc1ccccc1C1CCCCCN1c1cc(C)nc(N)n1` (stereo not drawn) [I-124]: more than 6.52 and 5.70 to 6.22.
The matching figures for `Cc1cc(N2CCCOCC2c2cc(N3CC[C@H](O)C3)ccc2Cl)nc(N)n1` (stereo partly drawn) [I-234, (3S)-1-[3-[4-(2-amino-6-methyl-pyrimidin-4-yl)-1,4-oxazepan-3-yl]-4-chloro-phenyl]pyrrolidin-3-ol]: 6.00 to 6.52 and more than 6.22.
For `Cc1cc(N2CCCOC[C@@H]2c2ccc(NCC3(C)COC3)cc2Cl)nc(N)n1` [I-240, 4-[(3S)-3-[2-chloro-4-[(3-methyloxetan-3-yl)methylamino]phenyl]-1,4-oxazepan-4-yl]-6-methyl-pyrimidin-2-amine], the negative-log IC50 (pIC50) in assay [1] was more than 6.52. For the same compound, the pEC50 in assay [2] was more than 6.22.
As to `Cc1cc(N2CCCOC[C@@H]2c2ccc(N3CCC(C)(O)CC3)cc2Cl)nc(N)n1` [I-242, (5)-1-(4-(4-(2-amino-6-methylpyrimidin-4-yl)-1,4-oxazepan-3-yl)-3-chlorophenyl)-4-methylpiperidin-4-ol], the pIC50 in assay [1] was more than 6.52. Besides, in assay [2], the pEC50 is more than 6.22.
The matching figures for `Cc1cc(N2CCCCCC2c2ccccc2Cl)nc(N)n1` (stereo not drawn) [I-243]: more than 6.52 and more than 6.22.
The matching figures for `Cc1cc(N2CCCOC[C@@H]2c2cc(Br)ccc2Cl)nc(N)n1` [I-245, 4-[(3S)-3-(5-bromo-2-chloro-phenyl)-1,4-oxazepan-4-yl]-6-methyl-pyrimidin-2-amine]: 6.00 to 6.52 and more than 6.22.
The matching figures for `Cc1cc(N2CCCOC[C@@H]2c2ccc(NC3CN(C)C3)cc2Cl)nc(N)n1` [I-246, 4-[(3S)-3-[2-chloro-4-[(1-methylazetidin-3-yl)amino]phenyl]-1,4-oxazepan-4-yl]-6-methyl-pyrimidin-2-amine]: more than 6.52 and more than 6.22.
With `Cc1cc(N2CCCOC[C@@H]2c2ccc(NCC(C)(C)O)cc2Cl)nc(N)n1` [I-247, 1-[4-[(3S)-4-(2-amino-6-methyl-pyrimidin-4-yl)-1,4-oxazepan-3-yl]-3-chloro-anilino]-2-methyl-propan-2-ol], the pIC50 in assay [1] was more than 6.52. For the same compound, the pEC50 in assay [2] was more than 6.22.
For `Cc1cc(N2CCCOC[C@@H]2c2ccc(NC3CC3)cc2Cl)nc(N)n1` [I-248, 4-[(3S)-3-[2-chloro-4-(cyclopropylamino)phenyl]-1,4-oxazepan-4-yl]-6-methyl-pyrimidin-2-amine], the pIC50 in assay [1] was more than 6.52. The pEC50 in assay [2] is more than 6.22.
Take `Cc1cc(N2CCCOC[C@@H]2c2ccc(NC3CN(C(=O)OC(C)(C)C)C3)cc2Cl)nc(N)n1` [I-256, Tert-butyl 3-[4-[(3S)-4-(2-amino-6-methyl-pyrimidin-4-yl)-1,4-oxazepan-3-yl]-3-chloro-anilino]azetidine-1-carboxylate]: the pIC50 in assay [1] was more than 6.52. Besides, in assay [2], the pEC50 was more than 6.22.
The matching figures for `Cc1cc(N2CCCOC[C@@H]2c2ccc(NC3CNC3)cc2Cl)nc(N)n1` [I-257, 4-[(3S)-3-[4-(azetidin-3-ylamino)-2-chloro-phenyl]-1,4-oxazepan-4-yl]-6-methyl-pyrimidin-2-amine]: 6.00 to 6.52 and more than 6.22.
In the case of `Cc1cc(N2CCCOC[C@@H]2c2cc(NC3COC3)ccc2Cl)nc(N)n1` [I-258, 4-[(3S)-3-[2-chloro-5-(oxetan-3-ylamino)phenyl]-1,4-oxazepan-4-yl]-6-methyl-pyrimidin-2-amine], the pIC50 in assay [1] was more than 6.52. In addition, the pEC50 in assay [2] is more than 6.22.

The values are drawn from patent US11440907B1 (Merck Patent GmbH, priority 2018, dated 2022).
